According to patent publication US6812028B1, “Embryogenesis and plant regeneration from microspores” (University of Guelph, priority 1999, dated 2004):

Key:
Format in all cases: cell-based
[1] = test system: wheat isolated microspores cv Pavon 79; test: Response of wheat isolated microspore cultures to AGP levels in MMS4 medium, with and without ovaries; settings: MMS4, cv Pavon 79
Experimental: The effect of AGP on embryogenesis and plant regeneration was assessed in wheat microspores which were isolated from genotype Pavon 79 according to the method of the present invention. AGP levels of 0, 1, 5, and 10 mg/liter were tested. [table] […] Additionally, the data illustrates the presence of ovaries in co-culture enhanced embryogenesis and plant regeneration. Only at 10 mg/liter of AGP was significant embryogenesis observed in the absence of ovary co-culture. FIG. 5(a) illustrates the comparative response of wheat microspores to the presence or absence of wheat ovaries and 0 or 10 mg/L AGP. FIG. 6 illustrates the good embryo structure developed in wheat after 4 weeks on medium with ovaries and AGP.

[2] = test system: spring wheat Pavon 79 microspores; test: AGP concentrations in microspore culture in MMS4 liquid media; settings: for # at Day 12 Alive / # at Day 12 Dead / # at Day 12 Dividing / # at Day 12 ELS / # at Day 12 Multicellular / # at Day 12 Total Developing / Day 50 # of embryos: 4 rep average
Experimental: In an experiment with Pavon 79, concentrations of 0, 10, 25, 50, 100, 500 and 1000 mg/L were used in microspore culture with 4 ovaries around a drop of liquid medium with microspores on top of solidified medium. […] However, higher concentrations can also be used. […] It was observed that 10 to 14 days in induction medium with AGP may be maximal as it appears that regeneration may be reduced with longer periods on medium with AGP.

[3] = test system: barley cv Igri isolated microspores; test: AGP effect on barley isolated microspore development in liquid FHG medium; settings: after 10 days
Source text: The effect of AGP concentration during embryogenic induction of barley microspores in culture was examined. A wide range of concentrations was applied to microspores […]. The AGP addition was effected by adding varying AGP concentrations in liquid FHG medium with 10^5 microspores onto solid FGH medium. Using a drop of microspores on solidified MFHG medium, structures were counted under an inverted microscope. The proportion of alive and dead microspores was not estimated in these plates, but the developing microspores were much higher in the 0 mg control compared to wheat. Thus, the difference in response of barley to AGP at day 10 is not as pronounced as in wheat.

[4] = test system: wheat (cv. Pavon 76) microspores; test: Influence of regeneration media on plant development from wheat microspores; settings: AGP in regeneration media
Experimental: A comparison of regeneration media composition was conducted for wheat microspores induced on a medium in the presence and absence AGP. The regeneration medium was based on MMS4 medium having either 3% sucrose or 9% maltose as a sugar source, or in an AGP-containing medium based on MMS4 with 9% maltose. The microspores were either induced on a support, in this case, a Watman #2 filter disk, or were placed on a solid media in liquid drops. […] Sucrose within the regeneration media was effective in producing a high percentage of green plants, however maltose was also found to be effective. Without wishing to be bound by theory, this may be due to the quicker release of energy from sucrose that is required for regeneration.

arabinogalactan protein [AGP]
# alive and dividing d 10 ([1]; AGP 1 mg/L, ovary +): 22605 | # alive not dividing d 10 ([1]; AGP 1 mg/L, ovary +): 2805 | # dead microspores d 10 ([1]; AGP 1 mg/L, ovary +): 47175 | # embryos 30 days ([1]; AGP 1 mg/L, ovary +): 2130 | # multicell burst d 10 ([1]; AGP 1 mg/L, ovary +): 1072 | # multicellular d 10 ([1]; AGP 1 mg/L, ovary +): 18500 | # alive and dividing d 10 ([1]; AGP 1 mg/L, ovary −): 22125 | # alive not dividing d 10 ([1]; AGP 1 mg/L, ovary −): 5650 | # dead microspores d 10 ([1]; AGP 1 mg/L, ovary −): 47558 | # embryos 30 days ([1]; AGP 1 mg/L, ovary −): 0 | # multicell burst d 10 ([1]; AGP 1 mg/L, ovary −): 400 | # multicellular d 10 ([1]; AGP 1 mg/L, ovary −): 13750 | # alive and dividing d 10 ([1]; AGP 5 mg/L, ovary +): 18272 | # alive not dividing d 10 ([1]; AGP 5 mg/L, ovary +): 7600 | # dead microspores d 10 ([1]; AGP 5 mg/L, ovary +): 30250 | # embryos 30 days ([1]; AGP 5 mg/L, ovary +): 3393 | # multicell burst d 10 ([1]; AGP 5 mg/L, ovary +): 7080 | # multicellular d 10 ([1]; AGP 5 mg/L, ovary +): 39078 | # alive and dividing d 10 ([1]; AGP 5 mg/L, ovary −): 26152 | # alive not dividing d 10 ([1]; AGP 5 mg/L, ovary −): 8275 | # dead microspores d 10 ([1]; AGP 5 mg/L, ovary −): 34500 | # embryos 30 days ([1]; AGP 5 mg/L, ovary −): 0 | # multicell burst d 10 ([1]; AGP 5 mg/L, ovary −): 742 | # multicellular d 10 ([1]; AGP 5 mg/L, ovary −): 28345 | # alive and dividing d 10 ([1]; AGP 10 mg/L, ovary +): 8500 | # alive not dividing d 10 ([1]; AGP 10 mg/L, ovary +): 0 | # dead microspores d 10 ([1]; AGP 10 mg/L, ovary +): 23550 | # embryos 30 days ([1]; AGP 10 mg/L, ovary +): 4250 | # multicell burst d 10 ([1]; AGP 10 mg/L, ovary +): 15452 | # multicellular d 10 ([1]; AGP 10 mg/L, ovary +): 68000 | # alive and dividing d 10 ([1]; AGP 10 mg/L, ovary −): 33275 | # alive not dividing d 10 ([1]; AGP 10 mg/L, ovary −): 6250 | # dead microspores d 10 ([1]; AGP 10 mg/L, ovary −): 24650 | # embryos 30 days ([1]; AGP 10 mg/L, ovary −): 50 | # multicell burst d 10 ([1]; AGP 10 mg/L, ovary −): 4620 | # multicellular d 10 ([1]; AGP 10 mg/L, ovary −): 41950 | # at Day 12 Alive ([2]; AGP 10 mg/L): 69.3 | # at Day 12 Dead ([2]; AGP 10 mg/L): 58.9 | # at Day 12 Dividing ([2]; AGP 10 mg/L): 23.9 | # at Day 12 ELS ([2]; AGP 10 mg/L): 8.7 | # at Day 12 Multicellular ([2]; AGP 10 mg/L): 33.8 | # at Day 12 Total Developing ([2]; AGP 10 mg/L): 66.4 | Day 50 # of embryos ([2]; AGP 10 mg/L): 4493 | # at Day 12 Alive ([2]; AGP 25 mg/L): 66.6 | # at Day 12 Dead ([2]; AGP 25 mg/L): 69.3 | # at Day 12 Dividing ([2]; AGP 25 mg/L): 13.6 | # at Day 12 ELS ([2]; AGP 25 mg/L): 10.3 | # at Day 12 Multicellular ([2]; AGP 25 mg/L): 38 | # at Day 12 Total Developing ([2]; AGP 25 mg/L): 61.9 | Day 50 # of embryos ([2]; AGP 25 mg/L): 3538 | # at Day 12 Alive ([2]; AGP 50 mg/L): 47.9 | # at Day 12 Dead ([2]; AGP 50 mg/L): 75 | # at Day 12 Dividing ([2]; AGP 50 mg/L): 10.7 | # at Day 12 ELS ([2]; AGP 50 mg/L): 5 | # at Day 12 Multicellular ([2]; AGP 50 mg/L): 13.2 | # at Day 12 Total Developing ([2]; AGP 50 mg/L): 28.9 | Day 50 # of embryos ([2]; AGP 50 mg/L): 471 | # at Day 12 Alive ([2]; AGP 100 mg/L): 66.4 | # at Day 12 Dead ([2]; AGP 100 mg/L): 61 | # at Day 12 Dividing ([2]; AGP 100 mg/L): 17.3 | # at Day 12 ELS ([2]; AGP 100 mg/L): 2.9 | # at Day 12 Multicellular ([2]; AGP 100 mg/L): 32.2 | # at Day 12 Total Developing ([2]; AGP 100 mg/L): 52.4 | Day 50 # of embryos ([2]; AGP 100 mg/L): 3709 | # at Day 12 Alive ([2]; AGP 500 mg/L): 57.3 | # at Day 12 Dead ([2]; AGP 500 mg/L): 61 | # at Day 12 Dividing ([2]; AGP 500 mg/L): 19.4 | # at Day 12 ELS ([2]; AGP 500 mg/L): 4.5 | # at Day 12 Multicellular ([2]; AGP 500 mg/L): 27.7 | # at Day 12 Total Developing ([2]; AGP 500 mg/L): 51.6 | Day 50 # of embryos ([2]; AGP 500 mg/L): 3267 | # at Day 12 Alive ([2]; AGP 1000 mg/L): 69.3 | # at Day 12 Dead ([2]; AGP 1000 mg/L): 56 | # at Day 12 Dividing ([2]; AGP 1000 mg/L): 14.8 | # at Day 12 ELS ([2]; AGP 1000 mg/L): 7 | # at Day 12 Multicellular ([2]; AGP 1000 mg/L): 28.5 | # at Day 12 Total Developing ([2]; AGP 1000 mg/L): 50.3 | Day 50 # of embryos ([2]; AGP 1000 mg/L): 1821 | microspore viability at day 12 versus control with no AGP ([2]; AGP 10-1000 mg/L, Pavon 79): not significantly different from the control value | embryogenesis across AGP concentrations ([2]; AGP concentrations of 10 or 25 mg/liter): optimal embryogenesis | total number of developing structures ([2]; in the presence of AGP, day 12, Pavon 79): improved | Dividing within microspore ([3]; AGP 2 mg/L): 39600 | Free Multicellulars ([3]; AGP 2 mg/L): 33550 | Total Developing ([3]; AGP 2 mg/L): 73150 | Dividing within microspore ([3]; AGP 5 mg/L): 43000 | Free Multicellulars ([3]; AGP 5 mg/L): 38230 | Total Developing ([3]; AGP 5 mg/L): 81230 | Dividing within microspore ([3]; AGP 10 mg/L): 45280 | Free Multicellulars ([3]; AGP 10 mg/L): 35750 | Total Developing ([3]; AGP 10 mg/L): 81030 | Dividing within microspore ([3]; AGP 25 mg/L): 39880 | Free Multicellulars ([3]; AGP 25 mg/L): 36030 | Total Developing ([3]; AGP 25 mg/L): 75910 | Dividing within microspore ([3]; AGP 50 mg/L): 37120 | Free Multicellulars ([3]; AGP 50 mg/L): 39880 | Total Developing ([3]; AGP 50 mg/L): 77000 | Dividing within microspore ([3]; AGP 100 mg/L): 42900 | Free Multicellulars ([3]; AGP 100 mg/L): 37730 | Total Developing ([3]; AGP 100 mg/L): 80630 | Dividing within microspore ([3]; AGP 500 mg/L): 35890 | Free Multicellulars ([3]; AGP 500 mg/L): 37810 | Total Developing ([3]; AGP 500 mg/L): 73700 | Dividing within microspore ([3]; AGP 1000 mg/L): 38500 | Free Multicellulars ([3]; AGP 1000 mg/L): 41600 | Total Developing ([3]; AGP 1000 mg/L): 80100 | effect of addition of AGP to the regeneration media on green plants [4]: reduced the number of green plants produced
